Series [1] has as its target T1, UGT1A4 (Homo sapiens, UniProt P22310).
T1 construct: pooled human liver microsomes (final concentration 0.25 mg/mL); tissue Corning Life Sciences; host or cells: pooled human liver microsomes, 150 donors
T1 sequence (P22310 29-534): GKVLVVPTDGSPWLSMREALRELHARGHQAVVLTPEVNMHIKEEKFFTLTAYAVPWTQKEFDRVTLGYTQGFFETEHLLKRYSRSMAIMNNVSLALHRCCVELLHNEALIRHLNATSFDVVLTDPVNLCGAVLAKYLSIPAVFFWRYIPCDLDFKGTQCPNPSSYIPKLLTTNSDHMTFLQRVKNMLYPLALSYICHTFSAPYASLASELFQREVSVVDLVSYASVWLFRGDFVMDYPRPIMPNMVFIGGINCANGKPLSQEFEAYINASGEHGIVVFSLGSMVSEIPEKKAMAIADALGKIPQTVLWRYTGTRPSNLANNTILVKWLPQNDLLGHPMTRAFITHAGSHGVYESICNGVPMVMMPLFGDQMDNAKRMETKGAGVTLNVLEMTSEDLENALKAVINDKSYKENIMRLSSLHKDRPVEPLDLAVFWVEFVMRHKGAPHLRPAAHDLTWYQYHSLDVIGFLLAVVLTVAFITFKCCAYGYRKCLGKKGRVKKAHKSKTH
Nature of the series: Inhibition of UGT1A4 (trifluoperazine-N-glucuronidation) in human liver microsomes. The note with it: for IC50: 4 μM trifluoperazine, mean ± SD of triplicate, read-out: IC50 towards UGT1A4; for Residual UGT1A4 enzyme activity: highest tested concentration 50 μM. The format is in vitro ADME. (Liver microsomes are vesicles of endoplasmic reticulum, rich in cytochrome P450 enzymes.)
Procedure: (§1) The formation activities of β-estradiol-3-glucuronide, chenodeoxycholic acid 24-acyl-β-D-glucuronide, trifluoperazine-N-glucuronide, imipramine-N-β-D-glucuronide, serotonin-O-glucuronide, propofol-O-glucuronide, and zidovudine-5′-glucuronide were determined to probe the activities of UGT1A1, UGT1A3, UGT1A4, UGT1A6, UGT1A9 and UGT2B7, respectively, in human liver microsomes.
(§2) In brief, the 90-µL incubation mixture, including pooled human liver microsomes (final concentration 0.25 mg/mL), 100 mM Tris buffer, 25 µg/mL alamethicin, 5 mM MgCl2, the UGT-selective substrates, and five xanthophylls (0–50 μM), were pre-incubated for 30 min on ice to allow formation of alamethicin pores. Reac2345tions were initiated by the addition of 10 μL of UDPGA (5 mM) to a final reaction volume of 0.1 mL and incubated at 37 °C for 60 min (except 30 min for UGT1A9) in a shaking water bath. After incubation, each reaction was stopped by adding 50 μL of ice-cold acetonitrile containing chlorpropamide (300 ng/mL) or theophylline (30 μg/mL or 300 μg/mL) as an internal standard. The mixtures were then centrifuged (13,000 g for 15 min at 4 °C) and 5-µL aliquots of the supernatants were injected into an LC-MS/MS system. […] All incubations were performed in triplicate, and mean values were used for analysis.
(§3) Chromatographic separations were performed on an Agilent Poroshell 120 EC-C18 column (50 mm × 4.6-mm i.d.; 2.7-μm particle size; Agilent Technologies) to quantify β-estradiol-3-glucuronide (UGT1A1), chenodeoxycholic acid 24-acyl-β-D-glucuronide (UGT1A3), trifluoperazine-N-glucuronide (UGT1A4), propofol-O-glucuronide (UGT1A9), zidovudine-5′-glucuronide (UGT2B7), and 4-methylumbelliferyl glucuronide (UGT2B15); an Agilent Poroshell 120 EC-C18 column (100 × 4.6-mm i.d.; 2.7-mm particle size) was used for quantification of serotonin-O-glucuronide (UGT1A6). The isocratic mobile phase consisted of distilled water (A) and acetonitrile containing 0.1% formic acid (B) at a ratio (v/v) of 10:90 for chenodeoxycholic acid 24-acyl-β-D-glucuronide, 30:70 for trifluoperazine-N-glucuronide and zidovudine-5′-glucuronide, 50:50 for propofol-O-glucuronide and 4-methylumbelliferyl glucuronide, 65:35 for β-estradiol-3-glucuronide, and 90:10 for serotonin-O-glucuronide, at a flow rate of 0.5 mL/min. The total run time was 4.0 min per sample for each metabolite, with the exception of serotonin-O-glucuronide (6.0 min). Peak areas for all of the analytes were automatically integrated using Analyst software (version 1.5.2, Applied Biosystems, Foster City, CA, USA).
(§4) The IC50 values were calculated via nonlinear least-squares regression analysis from plots of the logarithms of inhibitor concentration vs. the residual percentages of activities after inhibition, using WinNonlin (ver. 4.0; Pharsight, Mountain View, CA, USA).

Series [2] addresses T2, UGT2B15 (Homo sapiens, UniProt P54855).
T2 construct: purchased Corning Life Sciences
T2 sequence (P54855 24-530): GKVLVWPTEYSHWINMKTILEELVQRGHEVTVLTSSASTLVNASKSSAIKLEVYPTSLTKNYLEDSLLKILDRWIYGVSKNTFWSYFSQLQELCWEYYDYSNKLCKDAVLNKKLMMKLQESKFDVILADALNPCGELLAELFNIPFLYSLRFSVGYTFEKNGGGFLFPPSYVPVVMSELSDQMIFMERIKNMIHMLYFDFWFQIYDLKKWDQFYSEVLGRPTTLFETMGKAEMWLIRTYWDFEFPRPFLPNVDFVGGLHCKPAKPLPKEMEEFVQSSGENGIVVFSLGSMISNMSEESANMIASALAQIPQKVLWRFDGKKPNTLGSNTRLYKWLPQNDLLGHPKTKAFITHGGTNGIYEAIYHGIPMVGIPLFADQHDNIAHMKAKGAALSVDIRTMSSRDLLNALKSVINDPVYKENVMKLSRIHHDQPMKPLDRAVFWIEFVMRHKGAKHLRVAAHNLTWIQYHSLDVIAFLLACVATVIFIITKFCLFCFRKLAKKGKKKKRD
The series can be described thus: Inhibition of UGT2B15 (4-methylumbelliferyl glucuronidation) in recombinant human UGT2B15 supersomes. The class given is in vitro ADME. As to the method:
Although S-oxazepam is a typical substrate of UGT2B15 of human liver microsomes, authentic S-oxazepam and the corresponding glucuronide are not commercially […]. Thus, the inhibition of AS, βC, CA, LU, and ZE on the UGT2B15 activity was assessed using 4-methylumbelliferone as the nonspecific probe substrate for all UGTs except UGT1A4 [34] in recombinant human UGT2B15 supersomes.
The reaction was initiated by addition of 10 µL 5 mM UDPGA (to 100 µL total volume) followed by incubation for 120 min at 37 °C in a shaking water bath. Reactions were stopped by addition of 50 µL of ice-cold acetonitrile containing chlorpropamide (300 ng/mL) as an internal standard, and they were chilled and centrifuged (13,000 g, 15 min, 4 °C). An aliquot of 5 μL of supernatant was injected into an LC-MS/MS system. Additionally, identical parallel incubation samples containing a known UGT2B15 inhibitor amitriptyine (0–200 μM) was included as a positive control for UGT2B15.
For visual inspection, data were presented as Dixon plots.

The target of series [3] is T3, UGT1A1 (Homo sapiens, UniProt P22309).
T3 sequence (P22309 26-533): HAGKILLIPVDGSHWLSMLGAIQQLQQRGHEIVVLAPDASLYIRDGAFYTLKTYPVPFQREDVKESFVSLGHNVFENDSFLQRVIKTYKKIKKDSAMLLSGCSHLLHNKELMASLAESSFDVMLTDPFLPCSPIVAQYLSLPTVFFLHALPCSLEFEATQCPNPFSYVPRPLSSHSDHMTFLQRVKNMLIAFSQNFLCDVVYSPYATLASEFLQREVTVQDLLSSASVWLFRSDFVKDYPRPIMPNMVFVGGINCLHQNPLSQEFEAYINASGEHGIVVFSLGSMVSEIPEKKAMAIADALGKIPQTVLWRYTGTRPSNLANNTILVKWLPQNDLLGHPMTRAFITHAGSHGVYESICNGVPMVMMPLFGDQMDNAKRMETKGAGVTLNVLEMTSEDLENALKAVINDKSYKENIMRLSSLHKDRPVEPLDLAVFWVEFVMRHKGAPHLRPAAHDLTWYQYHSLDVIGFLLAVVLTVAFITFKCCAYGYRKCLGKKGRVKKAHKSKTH
The series can be described thus: Inhibition of UGT1A1 (β-estradiol-3-glucuronidation) in human liver microsomes. Conditions: for Residual UGT1A1 enzyme activity: highest tested concentration 50 μM.
Procedure: as §1, §2, §3, §4

The target of series [4] is T4, UGT2B7 (Homo sapiens, UniProt P16662).
T4 sequence (P16662 24-529): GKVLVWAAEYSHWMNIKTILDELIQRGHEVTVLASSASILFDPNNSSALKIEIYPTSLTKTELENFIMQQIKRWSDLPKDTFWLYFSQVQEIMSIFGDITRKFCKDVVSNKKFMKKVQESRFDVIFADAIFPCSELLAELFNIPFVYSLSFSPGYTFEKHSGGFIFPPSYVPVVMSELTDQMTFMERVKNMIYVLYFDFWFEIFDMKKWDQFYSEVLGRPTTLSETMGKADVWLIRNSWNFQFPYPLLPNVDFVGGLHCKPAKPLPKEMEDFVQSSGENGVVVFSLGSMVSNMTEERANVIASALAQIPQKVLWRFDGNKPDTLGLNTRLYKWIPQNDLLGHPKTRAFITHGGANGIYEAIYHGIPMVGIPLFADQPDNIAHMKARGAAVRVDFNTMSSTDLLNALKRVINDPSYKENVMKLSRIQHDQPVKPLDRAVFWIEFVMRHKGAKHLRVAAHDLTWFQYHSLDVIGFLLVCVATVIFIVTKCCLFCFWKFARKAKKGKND
Nature of the series: Inhibition of UGT2B7 (zidovudine-5′-glucuronidation) in human liver microsomes. The note with it: for Residual UGT2B7 enzyme activity: highest tested concentration 50 μM.
Procedure: as §1, §2, §3, §4

[5] abbreviates: recombinant UGT2B15 supersomes, 250 μM 4-methylumbelliferone, mean ± SD of triplicate, read-out: IC50 towards UGT2B15.
Setting [6] is: read-out: IC50 towards UGT1A1, human liver microsomes, 10 μM β-estradiol, mean ± SD of triplicate.
Setting [7] is: read-out: IC50 towards UGT2B7, human liver microsomes, 100 μM zidovudine, mean ± SD of triplicate.

Like-named read-outs stand apart in the source and are kept apart here.

Broadly, the IC50 is the concentration at which inhibition is half-maximal. For `CC1=C(/C=C/C(C)=C/C=C/C(C)=C/C=C/C=C(C)/C=C/C=C(C)/C=C/C2=C(C)C(=O)[C@@H](O)CC2(C)C)C(C)(C)C[C@H](O)C1=O` [AS, astaxanthin], the IC50 in series [1], in series [2], in series [3] and in series [4] was > 50 µM each time. The “Residual UGT1A4 enzyme activity” value in series [1] is given as “greater than 80%”. The “Residual UGT1A1 enzyme activity” value in series [3] (human liver microsomes) is listed as “greater than 80%”. Further, the “Residual UGT2B7 enzyme activity” value in series [4] (human liver microsomes) was “greater than 80%”.
As for `CC1=C(/C=C/C(C)=C/C=C/C(C)=C/C=C/C=C(C)/C=C/C=C(C)/C=C/C2=C(C)C[C@@H](O)CC2(C)C)C(C)(C)C[C@H](O)C1` [ZE, zeaxanthin], the IC50 in series [1], in series [2], in series [3] and in series [4] was > 50 µM each time. In series [1], the “Residual UGT1A4 enzyme activity” value is recorded as “greater than 80%”. Also, in series [3] (human liver microsomes), the “Residual UGT1A1 enzyme activity” value was 61.2%. Besides, the “Residual UGT2B7 enzyme activity” value in series [4] (human liver microsomes) is listed as “greater than 80%”.
On to `CC1=C(/C=C/C(C)=C/C=C/C(C)=C/C=C/C=C(C)/C=C/C=C(C)/C=C/C2=C(C)C(=O)CCC2(C)C)C(C)(C)CCC1=O` [CA, canthaxanthin], for which the 50% inhibitory concentration (IC50) in series [1] was > 50 µM; in series [2] (setting [5]) it was > 50 µM; in series [3] (setting [6]), 38.5 ± 4.65 µM; in series [4] (setting [7]) it was > 50 µM.
Turning to `CC1=C(/C=C/C(C)=C/C=C/C(C)=C/C=C/C=C(C)/C=C/C=C(C)/C=C/C2=C(C)C[C@@H](O)CC2(C)C)C(C)(C)CCC1` [βC, β-cryptoxanthin], the IC50 in series [1] is 34.9 ± 5.98 µM; in series [2] (setting [5]) it was > 50 µM; in series [3] (setting [6]), 18.8 ± 2.07 µM; in series [4] (setting [7]) it was > 50 µM.
On to `CC1=C[C@H](O)CC(C)(C)[C@H]1/C=C/C(C)=C/C=C/C(C)=C/C=C/C=C(C)/C=C/C=C(C)/C=C/C1=C(C)C[C@@H](O)CC1(C)C` [LU, lutein], for which the concentration for half-maximal inhibition (IC50) in series [1] was 28.7 ± 3.79 µM; in series [2], > 50 µM; in series [3] it was 45.5 ± 4.01 µM; in series [4], > 50 µM.

(Values after PMC6272861, “In Vitro Inhibition of Human UDP-Glucuronosyl-Transferase (UGT) Isoforms by Astaxanthin, β-Cryptoxanthin, Canthaxanthin, Lutein, and Zeaxanthin: Prediction of in Vivo Dietary Supplement-Drug Interactions” (Molecules, 2016).)
